We go through one compound from article doi:10.1101/2025.05.23.655116v1 (biorxiv, 2025).

In this assay the target is T1, FBG domain of Tenascin C (FBG-C, FBG-BAP, hFBG-C) (Homo sapiens, UniProt P24821).
T1 sequence (P24821 1976-2193): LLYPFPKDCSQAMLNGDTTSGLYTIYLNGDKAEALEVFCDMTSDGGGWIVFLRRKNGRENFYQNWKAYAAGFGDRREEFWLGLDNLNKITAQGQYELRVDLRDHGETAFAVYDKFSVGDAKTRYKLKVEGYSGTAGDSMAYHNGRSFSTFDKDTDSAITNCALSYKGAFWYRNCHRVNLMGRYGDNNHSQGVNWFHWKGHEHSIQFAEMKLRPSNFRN
Briefly: SPR, biotinylated FBG on SA chip. It counts as binding. A general note: Surface plasmon resonance follows binding to a sensor surface in real time, without labels.

The term Kd denotes the free concentration of one partner at which half of the binding sites on the other are occupied at equilibrium, for simple one-to-one binding. The low end stands for tighter binding, the high end for weaker binding. As for `COc1ccc(CN(C)CCc2cnn(C)c2)cc1OC[C@@H](O)CN1CCCCC1` [compound 830, 73494830], the Kd is 553 µM.
